Read-outs that look alike come from different tables or passages of the source.
Columns and labels:
[1] = biological target: T1, RAR-β (Homo sapiens, UniProt P10826); test: Cotransfection assay in CV-1 cells, RAR-beta; format: cell-based
T1 construct: expressed in transfected cells; host or cells: CV-1 (monkey kidney)
T1 sequence (P10826 1-448 isoform P10826-2): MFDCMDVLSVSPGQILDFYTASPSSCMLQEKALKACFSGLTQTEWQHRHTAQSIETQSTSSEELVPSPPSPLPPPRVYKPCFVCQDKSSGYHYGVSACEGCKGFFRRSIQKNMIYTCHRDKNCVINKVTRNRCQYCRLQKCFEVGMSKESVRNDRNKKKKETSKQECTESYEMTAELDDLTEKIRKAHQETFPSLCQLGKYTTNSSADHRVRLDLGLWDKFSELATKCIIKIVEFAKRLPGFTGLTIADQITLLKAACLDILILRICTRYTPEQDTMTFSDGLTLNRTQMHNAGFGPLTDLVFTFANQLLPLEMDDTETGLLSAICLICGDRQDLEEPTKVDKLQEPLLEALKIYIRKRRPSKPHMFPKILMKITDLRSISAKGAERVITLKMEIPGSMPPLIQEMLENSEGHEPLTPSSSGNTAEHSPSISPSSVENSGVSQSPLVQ

[2] = biological target: T2, RAR-γ (Homo sapiens, UniProt P13631); test: Cotransfection assay in CV-1 cells, RAR-gamma; format: cell-based
T2 construct: expressed in transfected cells; host or cells: CV-1 (monkey kidney)
T2 sequence (P13631 1-454): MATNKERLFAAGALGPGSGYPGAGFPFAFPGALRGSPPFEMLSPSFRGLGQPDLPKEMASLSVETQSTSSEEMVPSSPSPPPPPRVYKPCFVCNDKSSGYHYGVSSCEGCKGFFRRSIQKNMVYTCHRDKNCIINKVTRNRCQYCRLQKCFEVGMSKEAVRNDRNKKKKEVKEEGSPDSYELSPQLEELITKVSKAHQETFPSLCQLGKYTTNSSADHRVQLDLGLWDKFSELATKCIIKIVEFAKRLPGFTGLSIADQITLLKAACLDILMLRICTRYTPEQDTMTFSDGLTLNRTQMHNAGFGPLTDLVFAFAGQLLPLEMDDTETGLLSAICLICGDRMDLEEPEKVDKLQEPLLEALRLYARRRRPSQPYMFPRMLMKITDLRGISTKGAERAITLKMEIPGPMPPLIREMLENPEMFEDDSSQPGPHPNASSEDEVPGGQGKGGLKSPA

[3] = biological target: T3, RXR-α (Homo sapiens, UniProt P19793); test: Cotransfection assay in CV-1 cells, RXR-alpha; format: cell-based; conditions: Table 4; for EC50: read-out: Potency
T3 construct: expressed in transfected cells; host or cells: CV-1 (monkey kidney)
T3 sequence (P19793 1-462): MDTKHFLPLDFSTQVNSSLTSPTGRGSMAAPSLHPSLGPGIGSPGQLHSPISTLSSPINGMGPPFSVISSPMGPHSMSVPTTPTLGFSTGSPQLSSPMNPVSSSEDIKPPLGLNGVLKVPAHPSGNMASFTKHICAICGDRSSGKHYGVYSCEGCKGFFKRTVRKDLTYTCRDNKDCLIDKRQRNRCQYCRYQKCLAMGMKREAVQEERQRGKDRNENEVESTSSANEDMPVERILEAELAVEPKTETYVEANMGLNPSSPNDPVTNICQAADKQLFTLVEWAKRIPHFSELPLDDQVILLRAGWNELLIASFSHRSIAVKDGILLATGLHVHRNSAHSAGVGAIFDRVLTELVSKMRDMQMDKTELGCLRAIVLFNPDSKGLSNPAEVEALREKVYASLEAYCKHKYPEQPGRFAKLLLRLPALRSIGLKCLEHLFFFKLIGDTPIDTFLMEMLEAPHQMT

[4] = biological target: T4, RXR-β (Mus musculus, UniProt P28704); test: Cotransfection assay in CV-1 cells, RXR-beta; format: cell-based; conditions: Table 4; read-out: Potency
T4 construct: expressed in transfected cells; host or cells: CV-1 (monkey kidney)
T4 sequence (P28704 1-520): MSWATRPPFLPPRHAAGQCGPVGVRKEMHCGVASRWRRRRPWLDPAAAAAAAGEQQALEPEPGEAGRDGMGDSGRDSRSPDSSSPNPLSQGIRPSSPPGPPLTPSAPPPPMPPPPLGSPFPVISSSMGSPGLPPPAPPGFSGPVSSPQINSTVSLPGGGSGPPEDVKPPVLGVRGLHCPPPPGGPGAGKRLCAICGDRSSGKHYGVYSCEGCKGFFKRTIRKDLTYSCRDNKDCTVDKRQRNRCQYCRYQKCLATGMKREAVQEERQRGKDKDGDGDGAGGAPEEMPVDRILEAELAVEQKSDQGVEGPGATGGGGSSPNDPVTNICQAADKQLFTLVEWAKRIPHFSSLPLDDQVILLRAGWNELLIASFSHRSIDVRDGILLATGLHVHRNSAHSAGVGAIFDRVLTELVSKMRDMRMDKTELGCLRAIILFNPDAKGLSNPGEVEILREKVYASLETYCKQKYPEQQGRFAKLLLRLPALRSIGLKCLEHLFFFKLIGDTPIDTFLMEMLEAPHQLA

[5] = biological target: T5, RXR-γ (Mus musculus, UniProt P28705); test: Cotransfection assay in CV-1 cells, RXR-gamma; format: cell-based; conditions: Table 4; read-out: Potency
T5 construct: expressed in transfected cells; host or cells: CV-1 (monkey kidney)
T5 sequence (P28705 1-463): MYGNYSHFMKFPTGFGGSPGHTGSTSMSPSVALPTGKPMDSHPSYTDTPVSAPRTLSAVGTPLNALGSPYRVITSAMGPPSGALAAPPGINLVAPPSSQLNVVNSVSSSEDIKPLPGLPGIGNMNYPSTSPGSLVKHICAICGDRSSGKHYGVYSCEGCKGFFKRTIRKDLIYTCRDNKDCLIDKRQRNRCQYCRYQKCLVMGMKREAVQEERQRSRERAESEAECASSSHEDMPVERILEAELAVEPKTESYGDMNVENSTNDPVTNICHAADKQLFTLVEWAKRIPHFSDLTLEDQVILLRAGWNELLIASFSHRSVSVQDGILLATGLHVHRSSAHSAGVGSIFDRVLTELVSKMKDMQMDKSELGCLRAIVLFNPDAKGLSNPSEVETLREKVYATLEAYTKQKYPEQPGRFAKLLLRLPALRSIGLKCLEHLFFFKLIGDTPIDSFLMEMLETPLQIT

[6] = biological target: T6, RAR-α (Homo sapiens, UniProt P10276); test: Cotransfection assay in CV-1 cells, RAR-alpha; format: cell-based; design: expressed in transfected cells; host or cells: CV-1 (monkey kidney); conditions: for EC50: Table 4
T6 sequence (P10276 1-462): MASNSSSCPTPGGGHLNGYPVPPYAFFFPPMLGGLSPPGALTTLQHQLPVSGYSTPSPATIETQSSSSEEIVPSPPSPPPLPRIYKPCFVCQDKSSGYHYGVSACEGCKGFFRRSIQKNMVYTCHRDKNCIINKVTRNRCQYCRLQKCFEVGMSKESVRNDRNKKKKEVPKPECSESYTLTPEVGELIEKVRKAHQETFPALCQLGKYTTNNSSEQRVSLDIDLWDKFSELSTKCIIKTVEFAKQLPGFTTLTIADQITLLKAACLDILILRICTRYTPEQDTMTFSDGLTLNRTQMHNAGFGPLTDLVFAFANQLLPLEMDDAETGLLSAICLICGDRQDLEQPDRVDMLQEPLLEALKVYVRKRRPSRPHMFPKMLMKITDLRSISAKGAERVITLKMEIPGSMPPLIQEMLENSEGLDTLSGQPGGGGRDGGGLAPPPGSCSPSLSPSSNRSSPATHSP

[7] = tested on: human primary metastatic melanoma cell line c81–46c; test: In vitro proliferation of human melanoma cell line c81–46c; format: cell-based
[8] = tested on: F9 cells; test: F9 cell differentiation, cellular morphology; format: cell-based, mouse
Source text: Retinoids are known to differentiate mouse teratocarcinoma cells (F9). Differentiation of F9 cells is specifically associated with irreversible changes in morphology and induction of the biochemical marker alkaline phosphatase (ALP) and tissue plasminogen activator (tPA) (Biochem. J. Vol. 274:673–678).

[9] = biological target: T6, RAR-α; test: Binding studies, RAR-alpha; design: made in house; host or cells: bacteria (PET-8c vector)
[10] = tested on: murine melanoma cell line Clone M3; test: In vitro proliferation of murine melanoma cell line Clone M3
[11] = tested on: Rhino mouse; test: Topical application, horn-filled utriculus size in the Rhino mouse; format: in vivo; conditions: 14 days
[12] = tested on: F9 cells; test: F9 cell differentiation, induction of alkaline phosphatase; format: cell-based, mouse; conditions: maximal responses similar
[13] = tested on: F9 cells; test: F9 cell differentiation, tissue plasminogen activator activity; format: cell-based, mouse; conditions: concentration of 1 μM

CC1=C(/C=C/C(C)=C\C=C\C(C)=C\C(=O)O)C(C)(C)CCC1O (stereo not drawn) [4-hydroxy-9-cis-retinoic acid]
EC50 [1]: 0.16 µM
Efficacy [1]: 71%
EC50 [2]: 0.18 µM
Efficacy [2]: 81%
Efficacy ([3]; maximal response relative to retinoic acid at 10^−5 M): 161%
EC50 [3]: 1.7 µM
EC50 [4]: 0.65 µM
EC50 [5]: 1.7 µM
EC50 ([6]; Potency): 0.38 µM

CC1=C(/C=C/C(C)=C\C=C\C(C)=C\C(=O)O)C(C)(C)CCC1=O [4-keto-9-cis-retinoic acid]
EC50 [3]: 0.52 µM
EC50 [4]: 1.3 µM
EC50 [5]: 1.1 µM

CC1=C(/C=C/C(C)=C\C=C\C(C)=C\C(=O)O)C(C)(C)CCC1 [9-cis-retinoic acid]
% Growth inhibition ([7]; Conc added 0.01 μM): −28%
% Growth inhibition ([7]; Conc added 1 μM): −45%
differentiation of F9 cells, irreversible changes in cellular morphology [8]: induced differentiation of F9 cells into partial endoderm-like cells
binding to RAR-alpha [9]: high affinity ligand
% Growth inhibition ([10]; Conc added 0.01 μM): −49%
% Growth inhibition ([10]; Conc added 1 μM): −85%
potency as an activator of RAR-alpha compared with all-trans-retinoic acid ([6]; FIG. 3C): equipotent

CC1=C(/C=C/C(=C\C=C\C(C)=C\C(=O)O)c2ccccc2)C(C)(C)CCC1 [9-phenyl-9-cis-retinoic acid]
EC50 ([1]; Table 4, read-out: Potency): 0.88 µM
EC50 ([2]; Table 4, read-out: Potency): 0.25 µM
EC50 [3]: 0.21 µM
EC50 [4]: 0.044 µM
EC50 [5]: 0.29 µM
EC50 ([6]; read-out: Potency): > 10 µM

CC1=C(/C=C/C(C)=C/C=C/C(C)=C/C(=O)O)C(C)(C)CCC1 [all-trans-retinoic acid]
Pilosebaceous structure size (% red′n) ([11]; 0.01% topical): (−75%)
Pilosebaceous structure size (% red′n) ([11]; 0.1% topical): (−78%)
Pilosebaceous structure size ([11]; 0.1% topical, vehicle control 178 μm): 44 μm
times more potent than 9-cis-retinoic acid in inducing ALP [12]: 40 times
increased cellular activities of tPA [13]: 0.80±0.08
differentiation of F9 cells, irreversible changes in cellular morphology [8]: induced differentiation of F9 cells into partial endoderm-like cells

Source: patent US7056954B2, “Means for the modulation of processes mediated by retinoid receptors and compounds useful therefor” (The Salk Institute for Biological Studies, priority 1991, dated 2006)
